In paper PMC9964957, “A Liquid Chromatography Tandem Mass Spectrometry Method for the Simultaneous Estimation of the Dopamine Receptor Antagonist LE300 and Its N-methyl Metabolite in Plasma: Application to a Pharmacokinetic Study” (Molecules, 2023):
Where two headings read alike, the source gives them in different places.

Legend:
[1] = Stability in stock preparations; format: physicochemical; conditions: stock preparations kept at −80 °C for 28 days
Procedure: LE300 and MLE300 stock solutions were prepared separately in a mixture of methanol and water (1:1) at a concentration of 1 mg/mL. Ponatinib (IS) stock solution was prepared in DMSO at 1 mg/mL. […] Successive working solutions of LE300 and MLE300 were additionally obtained through dilution using ultrapure water at concentrations of 0.05, 0.5, 5, and 20 µg/mL. A working solution of IS was prepared in ultrapure water at a concentration of 20 ng/mL. Two calibrators at concentrations ranged from 1 to 200 ng/mL and 2 to 200 ng/mL for LE300 and MLE300, respectively, were prepared in blank rat plasma from the intermediate solutions. Different quality control samples for LE300 at 1.0 ng/mL for the LLOQ, 3.0 ng/mL for the QC sample at low concentration, (LOQ), 75 ng/mL for the QC sample at mid concentration (MQC), and 175 ng/mL for the QC sample at high concentration (HQC) were prepared by spiking an appropriate volume of the intermediate solutions with blank rat plasma. Similarly, different quality control samples for MLE300 at 2.0, 6.0, 90, and 180 ng/mL for LLOQ, LOQ, MQC, and HQC were prepared. The peak area ratios of LE300 and MLE300 to IS were treated to obtain the calibration curve of each drug. Alternatively, the corresponding regression equation was derived.

[2] = rat plasma
in vivo = conditions: male, Wistar, rat, plasma, po, 10 mg/kg
[3] = high QC (nominal 175 ng/mL LE300, 180 ng/mL MLE300)
[4] = low QC (nominal 3 ng/mL LE300, 6 ng/mL MLE300)

CN1CCc2ccccc2Cc2c(c3ccccc3n2C)CC1 [MLE300]
Stability in stock preparations [1]: perfect stability
Autosampler Stability (24 h at 15 °C) [2, 3]: 98.5 ± 1.7%
Freeze-Thaw Stability (3 cycles, −80 °C) [2, 3]: 99.5 ± 1.5%
Long-Term Stability (−80 °C for 28 d) [2, 3]: 99.2 ± 2.3%
Short-Term Stability (4 h at Room T) [2, 3]: 98.8 ± 1.8%
Autosampler Stability (24 h at 15 °C) [2, 4]: 99.3 ± 1.7%
Freeze-Thaw Stability (3 cycles, −80 °C) [2, 4]: 98.2 ± 1.4%
Long-Term Stability (−80 °C for 28 d) [2, 4]: 98.9 ± 1.4%
Short-Term Stability (4 h at Room T) [2, 4]: 97.9 ± 1.6%
CL/F (total clearance of the drug from plasma after oral administration) (rat plasma, single oral dose 10 mg/kg LE300, mean ± SD, six rats): 0.012 ± 0.01 L/h
AUC(0-inf) (in vivo): 790 ± 37.2 ng·h/mL
AUC(0-t) (in vivo): 762 ± 34.3 ng·h/mL
Cmax (in vivo): 170 ± 26.3 ng/mL
Tmax (in vivo): 3 ± 0.18 h
half-life (in vivo): 4.56 ± 0.29 h

CN1CCc2ccccc2Cc2[nH]c3ccccc3c2CC1 [LE300, 7-methyl-6,7,8,9,14,15-hexahydro-5Hbenz[d]indolo[2,3-g]azecine]
Stability in stock preparations [1]: perfect stability
Autosampler Stability (24 h at 15 °C) [2, 3]: 98.9 ± 1.3%
Freeze-Thaw Stability (3 cycles, −80 °C) [2, 3]: 99.2 ± 1.3%
Long-Term Stability (−80 °C for 28 d) [2, 3]: 99.2 ± 1.7%
Short-Term Stability (4 h at Room T) [2, 3]: 98.3 ± 1.8%
Autosampler Stability (24 h at 15 °C) [2, 4]: 98.5 ± 1.8%
Freeze-Thaw Stability (3 cycles, −80 °C) [2, 4]: 97.9 ± 1.5%
Long-Term Stability (−80 °C for 28 d) [2, 4]: 97.7 ± 1.4%
Short-Term Stability (4 h at Room T) [2, 4]: 98.5 ± 1.6%
CL/F (total clearance of the drug from plasma after oral administration) (rat, in vivo, po, 10 mg/kg): 0.017 ± 0.01 L/h
AUC(0-inf) (in vivo): 577 ± 22.4 ng·h/mL
AUC(0-t) (in vivo): 524 ± 24.3 ng·h/mL
Tmax (in vivo): 2 ± 0.18 h
half-life (in vivo): 7.38 ± 0.17 h
Cmax (in vivo; Cmax (maximum plasma concentration), rat plasma, single oral dose 10 mg/kg LE300, mean ± SD, six rats): 151 ± 12.5 ng/mL
